Columns and labels:
[1] = Plasma concentration of PLX038, released SN-38 and SN-38G in rats bearing HT29 tumor xenografts (HPLC with fluorescence monitoring); type: in vivo; details: rat with HT29 xenograft, ~200 mg/kg PLX038, conjugate
HT29 tumor xenografts = experiment: Levels of conjugate and released SN-38 in tumor versus plasma, HT29 xenograft-bearing rats
MX-1 tumor xenografts = experiment: Efficacy of PLX038A (PEG-SN38) in mice bearing MX-1 tumor xenografts; details: 137 µmole/kg irinotecan single dose
HT-29 xenograft = details: irinotecan control
Protocol: Varying doses of the unlabeled PEG~(SN-38)4 conjugate are injected into animals.

[2] = 14 days post-dosing, single 200 mg/kg PLX038
[3] = administered dose 200 mg/kg PLX038

Row | SMILES | half-life in plasma / systemic circulation [1] [h] | accumulation in tumors (HT29 tumor xenografts; [2]) | serum levels (HT29 tumor xenografts; [2]) | concentration of released SN-38 in the tumor (HT29 tumor xenografts; [3]) | released SN-38 in the circulation (HT29 tumor xenografts; [3]) | conjugate / free drug in the plasma (HT29 tumor xenografts; lower dosages of PLX038) | conjugate / free drug in the tumor (HT29 tumor xenografts; lower dosages of PLX038) | effect on tumor growth compared with vehicle (MX-1 tumor xenografts) | tumor inhibition relative to PLX038 (HT-29 xenograft) | gastrointestinal (GI) toxicity (HT-29 xenograft; rat HT-29 xenograft model, PLX038 single 200 mg/kg)
1 | CCc1c2c(nc3ccc(O)cc13)-c1cc3c(c(=O)n1C2)COC(=O)[C@]3(O)CC [SN-38] | 50 | high accumulation | undetectable | about 80 pm/g | barely detectable | not detected in the plasma | significant concentrations |  |  | 
2 | CCc1c2c(nc3ccc(OC(=O)N4CCC(N5CCCCC5)CC4)cc13)-c1cc3c(c(=O)n1C2)COC(=O)[C@]3(O)CC [irinotecan] |  |  |  |  |  |  |  | only somewhat better than vehicle | near-equal tumor inhibition | significant GI toxicity
